Experimental data published in PubChem BioAssay (NCI).
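Grown in 96-well plates, cells were treated for 48 hours with each compound at five concentrations. Insufficient inhibition: endpoint recorded as highest concentration tested. TGI denotes the concentration required for complete inhibition of growth.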

Key:
Assay in all cases: NCI anticancer screen, dose series, 48 h
EKVX NSCLC = test system: EKVX NSCLC
CAKI-1 renal = test system: CAKI-1 renal
BT-549 breast = test system: BT-549 breast
MDA-N = test system: MDA-N
CCRF-CEM leukemia = test system: CCRF-CEM leukemia
RXF 393 renal = test system: RXF 393 renal
IGROV1 ovarian = test system: IGROV1 ovarian
NCI-H226 lung = test system: NCI-H226 lung
MCF7 breast = test system: MCF7 breast
HCT-116 colon = test system: HCT-116 colon
MDA-MB-435 = test system: MDA-MB-435
OVCAR-8 ovarian = test system: OVCAR-8 ovarian
NCI/ADR-RES ovarian = test system: NCI/ADR-RES ovarian
SR leukemia = test system: SR leukemia
RPMI-8226 leukemia = test system: RPMI-8226 leukemia
U251 CNS = test system: U251 CNS
MDA-MB-231 breast = test system: MDA-MB-231 breast
UACC-62 melanoma = test system: UACC-62 melanoma
UO-31 renal = test system: UO-31 renal
SW-620 colon = test system: SW-620 colon
A498 renal = test system: A498 renal
KM12 colon = test system: KM12 colon
NCI-H522 lung = test system: NCI-H522 lung
M14 melanoma = test system: M14 melanoma
LOX IMVI melanoma = test system: LOX IMVI melanoma
SK-MEL-28 melanoma = test system: SK-MEL-28 melanoma
TK-10 renal = test system: TK-10 renal
SK-MEL-5 melanoma = test system: SK-MEL-5 melanoma
A549 NSCLC = test system: A549 NSCLC
OVCAR-3 ovarian = test system: OVCAR-3 ovarian
PC-3 prostate = test system: PC-3 prostate
MOLT-4 leukemia = test system: MOLT-4 leukemia
SF-295 CNS = test system: SF-295 CNS
NCI-H460 lung = test system: NCI-H460 lung
SNB-75 CNS = test system: SNB-75 CNS
HCT-15 colon = test system: HCT-15 colon
T-47D breast = test system: T-47D breast
HOP-92 NSCLC = test system: HOP-92 NSCLC
OVCAR-4 ovarian = test system: OVCAR-4 ovarian
SN12C renal = test system: SN12C renal
HT29 colon = test system: HT29 colon
HS 578T breast = test system: HS 578T breast
MALME-3M melanoma = test system: MALME-3M melanoma
SF-268 CNS = test system: SF-268 CNS
HCC-2998 colon = test system: HCC-2998 colon
NCI-H23 lung = test system: NCI-H23 lung
HOP-62 NSCLC = test system: HOP-62 NSCLC
SNB-19 CNS = test system: SNB-19 CNS
OVCAR-5 ovarian = test system: OVCAR-5 ovarian
HL-60(TB) leukemia = test system: HL-60(TB) leukemia
K-562 leukemia = test system: K-562 leukemia
786-0 renal = test system: 786-0 renal
DU-145 prostate = test system: DU-145 prostate
SF-539 CNS = test system: SF-539 CNS
SK-MEL-2 melanoma = test system: SK-MEL-2 melanoma
SK-OV-3 ovarian = test system: SK-OV-3 ovarian
ACHN renal = test system: ACHN renal
COLO 205 colon = test system: COLO 205 colon
UACC-257 melanoma = test system: UACC-257 melanoma

With `CCOC(=O)C(SCCO)C(C(=O)OCC)n1cc(C)c(=O)[nH]c1=O` (configuration not stated) the TGI (EKVX NSCLC) was > 100 µM, the TGI (CAKI-1 renal) was 18.2 µM and the TGI (BT-549 breast) was > 85.1 µM. The TGI (MDA-N) was 64.4 µM, the TGI (CCRF-CEM leukemia) was 8.1 µM and the TGI (RXF 393 renal) was 43.7 µM. The TGI (IGROV1 ovarian) was > 65.4 µM, the TGI (NCI-H226 lung) was > 61.4 µM and the TGI (MCF7 breast) was 43.5 µM. For the same compound, the TGI (HCT-116 colon) was 22.6 µM, the TGI (MDA-MB-435) was > 56.1 µM and the TGI (OVCAR-8 ovarian) was > 62.7 µM. For the same compound, the TGI (NCI/ADR-RES ovarian) was > 86.6 µM, the TGI (SR leukemia) was 35.5 µM and the TGI (RPMI-8226 leukemia) was 44.4 µM. The TGI (U251 CNS) was 36.5 µM, the TGI (MDA-MB-231 breast) was 48.9 µM and the TGI (UACC-62 melanoma) was 40 µM. For the same compound, the TGI (UO-31 renal) was > 62.8 µM, the TGI (SW-620 colon) was > 43.1 µM and the TGI (A498 renal) was 47.5 µM. The TGI (KM12 colon) was > 63.1 µM, the TGI (NCI-H522 lung) was 17.6 µM and the TGI (M14 melanoma) was 25 µM. The TGI (LOX IMVI melanoma) was 19.2 µM, the TGI (SK-MEL-28 melanoma) was > 65.6 µM and the TGI (TK-10 renal) was > 82.5 µM. For the same compound, the TGI (SK-MEL-5 melanoma) was > 70.6 µM, the TGI (A549 NSCLC) was > 100 µM and the TGI (OVCAR-3 ovarian) was 51.7 µM. For the same compound, the TGI (PC-3 prostate) was 34.6 µM, the TGI (MOLT-4 leukemia) was 42.1 µM and the TGI (SF-295 CNS) was > 100 µM. For the same compound, the TGI (NCI-H460 lung) was > 100 µM, the TGI (SNB-75 CNS) was > 100 µM and the TGI (HCT-15 colon) was 25.7 µM. The TGI (T-47D breast) was > 100 µM, the TGI (HOP-92 NSCLC) was 71.9 µM and the TGI (OVCAR-4 ovarian) was > 74.7 µM. For the same compound, the TGI (SN12C renal) was > 45.8 µM, the TGI (HT29 colon) was 32.2 µM and the TGI (HS 578T breast) was > 100 µM. The TGI (MALME-3M melanoma) was 38.6 µM, the TGI (SF-268 CNS) was > 100 µM and the TGI (HCC-2998 colon) was > 78.9 µM. The TGI (NCI-H23 lung) was > 78.7 µM, the TGI (HOP-62 NSCLC) was > 85.6 µM and the TGI (SNB-19 CNS) was > 100 µM. For the same compound, the TGI (OVCAR-5 ovarian) was 32.1 µM, the TGI (HL-60(TB) leukemia) was 4.88 µM and the TGI (K-562 leukemia) was 15.8 µM. For the same compound, the TGI (786-0 renal) was 15.6 µM, the TGI (DU-145 prostate) was > 100 µM and the TGI (SF-539 CNS) was > 65.3 µM. For the same compound, the TGI (SK-MEL-2 melanoma) was 51.1 µM, the TGI (SK-OV-3 ovarian) was > 100 µM and the TGI (ACHN renal) was > 57.1 µM. The TGI (COLO 205 colon) was 23.3 µM and the TGI (UACC-257 melanoma) was > 84.6 µM.

For `CCOC(=O)C1C(=O)CC(C)(O)C(C(=O)OCC)C1c1ccc(OC)cc1` (configuration not stated), the TGI (EKVX NSCLC) was > 100 µM, the TGI (CAKI-1 renal) was > 100 µM and the TGI (BT-549 breast) was > 100 µM. For the same compound, the TGI (MDA-N) was > 100 µM, the TGI (CCRF-CEM leukemia) was > 100 µM and the TGI (RXF 393 renal) was > 100 µM. For the same compound, the TGI (IGROV1 ovarian) was > 100 µM, the TGI (NCI-H226 lung) was > 100 µM and the TGI (MCF7 breast) was > 100 µM. For the same compound, the TGI (HCT-116 colon) was > 100 µM, the TGI (MDA-MB-435) was > 100 µM and the TGI (OVCAR-8 ovarian) was > 100 µM. For the same compound, the TGI (NCI/ADR-RES ovarian) was > 100 µM, the TGI (SR leukemia) was > 100 µM and the TGI (RPMI-8226 leukemia) was > 100 µM. The TGI (U251 CNS) was > 100 µM, the TGI (MDA-MB-231 breast) was > 100 µM and the TGI (UACC-62 melanoma) was > 100 µM. The TGI (UO-31 renal) was > 100 µM, the TGI (SW-620 colon) was > 100 µM and the TGI (A498 renal) was > 100 µM. The TGI (KM12 colon) was > 100 µM, the TGI (NCI-H522 lung) was > 100 µM and the TGI (M14 melanoma) was > 100 µM. The TGI (LOX IMVI melanoma) was > 100 µM, the TGI (SK-MEL-28 melanoma) was > 100 µM and the TGI (TK-10 renal) was > 100 µM. The TGI (SK-MEL-5 melanoma) was > 100 µM, the TGI (A549 NSCLC) was > 100 µM and the TGI (OVCAR-3 ovarian) was > 100 µM. For the same compound, the TGI (PC-3 prostate) was > 100 µM, the TGI (MOLT-4 leukemia) was > 100 µM and the TGI (SF-295 CNS) was > 100 µM. For the same compound, the TGI (NCI-H460 lung) was > 100 µM, the TGI (SNB-75 CNS) was > 100 µM and the TGI (HCT-15 colon) was > 100 µM. For the same compound, the TGI (T-47D breast) was > 100 µM, the TGI (HOP-92 NSCLC) was > 100 µM and the TGI (OVCAR-4 ovarian) was > 100 µM. For the same compound, the TGI (SN12C renal) was > 100 µM, the TGI (HT29 colon) was > 100 µM and the TGI (HS 578T breast) was > 100 µM. The TGI (MALME-3M melanoma) was > 100 µM, the TGI (SF-268 CNS) was > 100 µM and the TGI (HCC-2998 colon) was > 100 µM. The TGI (NCI-H23 lung) was > 100 µM, the TGI (HOP-62 NSCLC) was > 100 µM and the TGI (SNB-19 CNS) was > 100 µM. For the same compound, the TGI (OVCAR-5 ovarian) was > 100 µM, the TGI (HL-60(TB) leukemia) was > 100 µM and the TGI (K-562 leukemia) was > 100 µM. The TGI (786-0 renal) was > 100 µM, the TGI (DU-145 prostate) was > 100 µM and the TGI (SF-539 CNS) was > 100 µM. For the same compound, the TGI (SK-MEL-2 melanoma) was > 100 µM, the TGI (ACHN renal) was > 100 µM and the TGI (COLO 205 colon) was > 100 µM. The TGI (UACC-257 melanoma) was > 100 µM.
